Measured values published in ChEMBL document CHEMBL5260848, “Recent advancements in the development of bioactive pyrazoline derivatives” (Eur J Med Chem, 2020).
≈ marks a conversion by molar mass, not a printed value.

Columns and labels:
Aspergillus fumigatus = test: Antifungal activity against Aspergillus fumigatus incubated for 24 hrs by disc diffusion method; type: functional
Staphylococcus aureus = test: microbe, parasite or virus in culture; details: 24 h
Aspergillus flavus = test: Antifungal activity against Aspergillus flavus incubated for 24 hrs by disc diffusion method; type: functional
[1] = system: Mycobacterium tuberculosis; test: microbe, parasite or virus in culture; details: 120 h
Pseudomonas aeruginosa = test: microbe, parasite or virus in culture; details: 24 h
Candida albicans = test: microbe, parasite or virus in culture; details: 24 h
Escherichia coli = test: Antibacterial activity against Escherichia coli incubated for 24 hrs by disc diffusion method; type: functional
Aspergillus niger = test: Antifungal activity against Aspergillus niger incubated for 24 hrs by disc diffusion method; type: functional
Bacillus subtilis = test: microbe, parasite or virus in culture; details: 24 h
Mus musculus [2] = species: Mus musculus; test: Antidepressant activity in Swiss albino mouse assessed as decrease in immobility time by tail suspension test; type: functional
Mus musculus [3] = species: Mus musculus; test: Antidepressant activity in Swiss albino mouse assessed as decrease in immobility time by forced swimming test; type: functional
[4] = target: T1, Amine oxidase [flavin-containing] B (Homo sapiens, UniProt P27338)
T1 sequence (P27338 whole entry): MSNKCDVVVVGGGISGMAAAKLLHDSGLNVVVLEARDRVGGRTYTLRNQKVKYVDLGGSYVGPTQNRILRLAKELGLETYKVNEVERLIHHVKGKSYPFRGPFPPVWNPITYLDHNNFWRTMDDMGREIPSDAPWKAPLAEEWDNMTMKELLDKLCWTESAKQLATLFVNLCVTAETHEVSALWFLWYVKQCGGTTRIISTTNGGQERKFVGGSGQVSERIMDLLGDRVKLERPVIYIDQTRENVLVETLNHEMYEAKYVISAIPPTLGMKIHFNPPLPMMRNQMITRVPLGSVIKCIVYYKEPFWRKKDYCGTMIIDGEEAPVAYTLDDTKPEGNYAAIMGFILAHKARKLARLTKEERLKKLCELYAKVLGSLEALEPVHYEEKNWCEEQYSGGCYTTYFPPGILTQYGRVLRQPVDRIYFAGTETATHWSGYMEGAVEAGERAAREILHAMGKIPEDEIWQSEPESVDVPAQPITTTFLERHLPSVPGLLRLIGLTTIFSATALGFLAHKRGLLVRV

Homo sapiens = species: Homo sapiens; test: Selectivity index, ratio of Ki for human MAO-A to Ki for human MAO-B
[5] = target: T2, Amine oxidase [flavin-containing] A (Homo sapiens, UniProt P21397)
T2 sequence (P21397 whole entry): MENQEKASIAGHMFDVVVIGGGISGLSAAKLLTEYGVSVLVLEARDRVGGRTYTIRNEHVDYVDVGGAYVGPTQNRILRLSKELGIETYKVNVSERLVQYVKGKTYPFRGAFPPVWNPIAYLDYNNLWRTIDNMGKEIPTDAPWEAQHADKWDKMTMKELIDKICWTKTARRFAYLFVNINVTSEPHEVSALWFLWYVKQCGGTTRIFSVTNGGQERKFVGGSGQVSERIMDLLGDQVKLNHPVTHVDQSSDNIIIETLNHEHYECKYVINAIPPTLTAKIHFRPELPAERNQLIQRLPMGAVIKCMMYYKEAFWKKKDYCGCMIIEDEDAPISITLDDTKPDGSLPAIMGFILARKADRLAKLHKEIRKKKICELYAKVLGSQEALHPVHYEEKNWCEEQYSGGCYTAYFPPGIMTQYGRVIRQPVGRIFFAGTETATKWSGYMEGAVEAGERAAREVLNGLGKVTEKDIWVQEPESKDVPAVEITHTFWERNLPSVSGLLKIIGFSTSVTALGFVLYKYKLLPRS

Mus musculus [6] = species: Mus musculus; test: Antidepressant activity in mouse assessed as […] by tail suspension test; type: functional
Mus musculus [7] = species: Mus musculus; test: Antidepressant activity in mouse assessed as […] by forced swimming test; type: functional

Q: Which MIC (Aspergillus fumigatus) does the source give for `O=C(NNS(=O)(=O)c1ccc(F)cc1F)N1N=C(c2ccccc2)CC1c1ccccc1` (stereo not drawn) here?
A: 25 µg/mL (≈ 54.8 µM)

Q: What about the MIC (Staphylococcus aureus) of the same molecule?
A: 25 µg/mL (≈ 54.8 µM)

Q: What about the MIC (Aspergillus flavus) of the same molecule?
A: 25 µg/mL (≈ 54.8 µM)

Q: And the MIC [1]?
A: 0.8 µg/mL (≈ 1.75 µM)

Q: What about the MIC (Pseudomonas aeruginosa) of the same molecule?
A: 25 µg/mL (≈ 54.8 µM)

Q: And the MIC (Candida albicans)?
A: 25 µg/mL (≈ 54.8 µM)

Q: And the MIC (Escherichia coli)?
A: 25 µg/mL (≈ 54.8 µM)

Q: What about the MIC (Aspergillus niger) of the same molecule?
A: 25 µg/mL (≈ 54.8 µM)

Q: What about the MIC (Bacillus subtilis) of the same molecule?
A: 25 µg/mL (≈ 54.8 µM)

Q: `CSc1ccc(C2CC(c3ccccc3)=NN2C(=O)NNS(=O)(=O)c2ccccc2)cc1` (stereo not drawn) was tested. Which MIC (Aspergillus fumigatus) did it give?
A: 25 µg/mL (≈ 53.6 µM)

Q: And the MIC (Staphylococcus aureus)?
A: 25 µg/mL (≈ 53.6 µM)

Q: What about the MIC (Aspergillus flavus) of the same molecule?
A: 25 µg/mL (≈ 53.6 µM)

Q: And the MIC [1]?
A: 0.8 µg/mL (≈ 1.71 µM)

Q: And the MIC (Pseudomonas aeruginosa)?
A: 25 µg/mL (≈ 53.6 µM)

Q: What about the MIC (Candida albicans) of the same molecule?
A: 25 µg/mL (≈ 53.6 µM)

Q: What about the MIC (Escherichia coli) of the same molecule?
A: 25 µg/mL (≈ 53.6 µM)

Q: And the MIC (Aspergillus niger)?
A: 25 µg/mL (≈ 53.6 µM)

Q: What about the MIC (Bacillus subtilis) of the same molecule?
A: 25 µg/mL (≈ 53.6 µM)

Q: With `Cc1nc(-c2ccc(Br)cc2)ccc1C1=NNC(c2ccc(Br)cc2)C1` (stereo not drawn) as the molecule, how does the Time (Mus musculus [2]) read?
A: 70.33 s

Q: What about the Time (Mus musculus [3]) of the same molecule?
A: 66.67 s

Q: Which results are given for `CCNC(=S)N1N=C(c2ccc(C)cc2)CC1c1ccc(F)cc1` (stereo not drawn)?
A: Ki [4]: 200 nM; Ratio Ki (Homo sapiens): 0.000464; Ki [5]: 0.1 nM

Q: How did the MIC (Aspergillus fumigatus) turn out when `O=C(NNS(=O)(=O)c1ccccc1)N1N=C(c2ccccc2)CC1c1ccc(Br)cc1` (stereo not drawn) was run?
A: 25 µg/mL (≈ 50.1 µM)

Q: What about the MIC (Staphylococcus aureus) of the same molecule?
A: 25 µg/mL (≈ 50.1 µM)

Q: And the MIC (Aspergillus flavus)?
A: 25 µg/mL (≈ 50.1 µM)

Q: What about the MIC [1] of the same molecule?
A: 0.8 µg/mL (≈ 1.6 µM)

Q: And the MIC (Pseudomonas aeruginosa)?
A: 25 µg/mL (≈ 50.1 µM)

Q: What about the MIC (Candida albicans) of the same molecule?
A: 25 µg/mL (≈ 50.1 µM)

Q: What about the MIC (Escherichia coli) of the same molecule?
A: 25 µg/mL (≈ 50.1 µM)

Q: What about the MIC (Aspergillus niger) of the same molecule?
A: 25 µg/mL (≈ 50.1 µM)

Q: And the MIC (Bacillus subtilis)?
A: 25 µg/mL (≈ 50.1 µM)

Q: Which results are given for `Fc1ccc(C2CC(c3ccc(Cl)cc3)=NN2C(=S)Nc2ccccc2)cc1` (stereo not drawn)?
A: Ki [4]: 200 nM; Ratio Ki (Homo sapiens): 0.000464; Ki [5]: 0.1 nM

Q: Which Time (Mus musculus [6]) does the source give for `Clc1ccc(C2CC(c3cccc4ccccc34)=NN2)cc1` (stereo not drawn) here?
A: 29.67 s

Q: And the Time (Mus musculus [7])?
A: 43.33 s

Q: What does the source list for `Clc1ccc(C2=NNC(c3ccco3)C2)cc1` (stereo not drawn)?
A: Time (Mus musculus [6]): 21.17 s; Time (Mus musculus [7]): 21.17 s

Q: How did the Time (Mus musculus [6]) turn out when `Clc1ccc(C2=NNC(c3cccs3)C2)cc1` (stereo not drawn) was run?
A: 21.17 s

Q: What about the Time (Mus musculus [7]) of the same molecule?
A: 21.17 s

Q: How did the Time (Mus musculus [6]) turn out when `COc1ccc(C2CC(c3cccc4ccccc34)=NN2)cc1OC` (stereo not drawn) was run?
A: 36.83 s

Q: What about the Time (Mus musculus [7]) of the same molecule?
A: 21.17 s

Q: Which Time (Mus musculus [6]) does the source give for `Oc1ccc(C2=NNC(c3cccs3)C2)cc1` (stereo not drawn) here?
A: 21.17 s

Q: What about the Time (Mus musculus [7]) of the same molecule?
A: 21.17 s

Q: Which results are given for `CCNC(=S)N1N=C(c2ccccc2)CC1c1ccc(F)cc1` (stereo not drawn)?
A: Ki [4]: 200 nM; Ratio Ki (Homo sapiens): 0.000464; Ki [5]: 0.1 nM

Q: `O=C(NNS(=O)(=O)c1ccccc1)N1N=C(c2ccccc2)CC1c1ccc(Cl)cc1` (stereo not drawn) was tested. Which MIC (Aspergillus fumigatus) did it give?
A: 25 µg/mL (≈ 55 µM)

Q: And the MIC (Staphylococcus aureus)?
A: 25 µg/mL (≈ 55 µM)

Q: What about the MIC (Aspergillus flavus) of the same molecule?
A: 25 µg/mL (≈ 55 µM)

Q: What about the MIC [1] of the same molecule?
A: 1.6 µg/mL (≈ 3.52 µM)

Q: What about the MIC (Pseudomonas aeruginosa) of the same molecule?
A: 25 µg/mL (≈ 55 µM)

Q: What about the MIC (Candida albicans) of the same molecule?
A: 25 µg/mL (≈ 55 µM)

Q: What about the MIC (Escherichia coli) of the same molecule?
A: 25 µg/mL (≈ 55 µM)

Q: And the MIC (Aspergillus niger)?
A: 25 µg/mL (≈ 55 µM)

Q: What about the MIC (Bacillus subtilis) of the same molecule?
A: 25 µg/mL (≈ 55 µM)

Q: With `Oc1ccc(C2=NNC(c3ccco3)C2)cc1` (stereo not drawn) as the molecule, how does the Time (Mus musculus [6]) read?
A: 21.17 s

Q: What about the Time (Mus musculus [7]) of the same molecule?
A: 21.17 s

Q: `COc1ccc(C2CC(c3ccccc3)=NN2C(=O)NNS(=O)(=O)c2ccc(F)cc2F)cc1` (stereo not drawn) was tested. Which MIC (Aspergillus fumigatus) did it give?
A: 25 µg/mL (≈ 51.4 µM)

Q: What about the MIC (Staphylococcus aureus) of the same molecule?
A: 25 µg/mL (≈ 51.4 µM)

Q: What about the MIC (Aspergillus flavus) of the same molecule?
A: 25 µg/mL (≈ 51.4 µM)

Q: And the MIC [1]?
A: 0.8 µg/mL (≈ 1.64 µM)

Q: What about the MIC (Pseudomonas aeruginosa) of the same molecule?
A: 25 µg/mL (≈ 51.4 µM)

Q: And the MIC (Candida albicans)?
A: 25 µg/mL (≈ 51.4 µM)

Q: What about the MIC (Escherichia coli) of the same molecule?
A: 25 µg/mL (≈ 51.4 µM)

Q: What about the MIC (Aspergillus niger) of the same molecule?
A: 25 µg/mL (≈ 51.4 µM)

Q: And the MIC (Bacillus subtilis)?
A: 25 µg/mL (≈ 51.4 µM)

Q: Which MIC (Aspergillus fumigatus) does the source give for `O=C(NNS(=O)(=O)c1ccc(F)cc1)N1N=C(c2ccc(F)cc2)CC1c1ccc(F)cc1` (stereo not drawn) here?
A: 25 µg/mL (≈ 52.7 µM)

Q: And the MIC (Staphylococcus aureus)?
A: 25 µg/mL (≈ 52.7 µM)

Q: What about the MIC (Aspergillus flavus) of the same molecule?
A: 25 µg/mL (≈ 52.7 µM)

Q: What about the MIC [1] of the same molecule?
A: 0.8 µg/mL (≈ 1.69 µM)

Q: And the MIC (Pseudomonas aeruginosa)?
A: 25 µg/mL (≈ 52.7 µM)

Q: And the MIC (Candida albicans)?
A: 25 µg/mL (≈ 52.7 µM)

Q: What about the MIC (Escherichia coli) of the same molecule?
A: 25 µg/mL (≈ 52.7 µM)

Q: And the MIC (Aspergillus niger)?
A: 25 µg/mL (≈ 52.7 µM)

Q: And the MIC (Bacillus subtilis)?
A: 25 µg/mL (≈ 52.7 µM)

Q: `O=C(NNS(=O)(=O)c1ccc(F)cc1)N1N=C(c2ccccc2)CC1c1ccc(Cl)cc1` (stereo not drawn) was tested. Which MIC (Aspergillus fumigatus) did it give?
A: 25 µg/mL (≈ 52.9 µM)

Q: What about the MIC (Staphylococcus aureus) of the same molecule?
A: 25 µg/mL (≈ 52.9 µM)

Q: What about the MIC (Aspergillus flavus) of the same molecule?
A: 25 µg/mL (≈ 52.9 µM)

Q: And the MIC [1]?
A: 0.8 µg/mL (≈ 1.69 µM)

Q: What about the MIC (Pseudomonas aeruginosa) of the same molecule?
A: 25 µg/mL (≈ 52.9 µM)

Q: And the MIC (Candida albicans)?
A: 25 µg/mL (≈ 52.9 µM)

Q: What about the MIC (Escherichia coli) of the same molecule?
A: 25 µg/mL (≈ 52.9 µM)

Q: What about the MIC (Aspergillus niger) of the same molecule?
A: 25 µg/mL (≈ 52.9 µM)

Q: What about the MIC (Bacillus subtilis) of the same molecule?
A: 25 µg/mL (≈ 52.9 µM)

Q: For `CNC(=S)N1N=C(c2ccccc2)CC1c1ccc(F)cc1` (stereo not drawn), which Ki [4] is on record?
A: 200 nM

Q: And the Ratio Ki (Homo sapiens)?
A: 0.000464

Q: And the Ki [5]?
A: 0.1 nM

Q: Which results are given for `CNC(=S)N1N=C(c2ccc(OC)cc2)CC1c1ccc(F)cc1` (stereo not drawn)?
A: Ki [4]: 200 nM; Ratio Ki (Homo sapiens): 0.000464; Ki [5]: 0.1 nM

Q: Which Time (Mus musculus [6]) does the source give for `c1coc(C2CC(c3cccc4ccccc34)=NN2)c1` (stereo not drawn) here?
A: 21.17 s

Q: What about the Time (Mus musculus [7]) of the same molecule?
A: 21.17 s

Q: `Cc1ccc(C2=NN(C(=S)Nc3ccccc3)C(c3ccc(F)cc3)C2)cc1` (stereo not drawn) was tested. Which Ki [5] did it give?
A: 0.1 nM

Q: For `C=CCNC(=S)N1N=C(c2ccc(Cl)cc2)CC1c1ccc(F)cc1` (stereo not drawn), which Ki [4] is on record?
A: 200 nM

Q: What about the Ratio Ki (Homo sapiens) of the same molecule?
A: 0.000464

Q: And the Ki [5]?
A: 0.1 nM
